Experimental data from patent publication US20100255580A1, “Differentiation of Human Embryonic Stem Cells” (LIFESCCAN, INC., priority 2007, published 2010).

Test system: H9 embryonic stem cells
Type: cell-based, human
Details: low serum
Experimental: Controls for each group included cells plated on […]-coated dishes and cultured in MEF-conditioned medium or cells plated on MEFs and cultured in ES medium. All groups contained three biological replicates and each biological replicate was repeated on two separate gene chips.
Sample preparation, hybridization, and image analysis were performed according to the Affymetrix Human Genome U133 Plus 2.0 Array. Following normalization and a log transformation, data analysis was performed using OmniViz® software (MA) and […] (VizXLabs, WA). Significant differences in gene expression between the samples were evaluated using analysis of variance and an F-test with adjusted P-value (Benjamini and
Hochberg correction) of ≦b 0.05. Only genes with a present call in at least one group were included in the analysis.

Activin A: a member of the TGFβ superfamily; R&D Systems; Group 2 = Activin A (100 ng/ml)
log intensity, nudix (nucleoside diphosphate linked moiety X)-type motif 4 (on MATRIGEL): 2.095 | log intensity, olfactory receptor, family 52, subfamily A, member 1 (OR52A1) (on MATRIGEL): −0.3096 | log intensity, oxoglutarate dehydrogenase (lipoamide) (OGDH) (on MATRIGEL): −0.03259 | log intensity, partial LHX9 gene for LIM-homeobox 9, 3UTR (on MATRIGEL): −2.2486 | log intensity, partial mRNA for putative nuclear factor (on MATRIGEL): 1.552 | log intensity, phosphatidylinositol-4-phosphate 5-kinase, type I, beta (PIP5K1B) (on MATRIGEL): 1.349 | log intensity, phosphofructokinase, liver (PFKL) (on MATRIGEL): 2.039 | log intensity, pilin-like transcription factor (PILB) (on MATRIGEL): 3.145 | log intensity, pleiomorphic adenoma gene-like 1 (on MATRIGEL): −0.6468 | log intensity, plexin A2 (on MATRIGEL): 0.9305 | log intensity, polycythemia rubra vera 1; cell surface receptor (PRV1) (on MATRIGEL): −1.196 | log intensity, porcupine (MG61) (on MATRIGEL): 1.518 | log intensity, protease, serine, 4 (trypsin 4, brain) (on MATRIGEL): −0.3456 | log intensity, protein S (alpha) (PROS1) (on MATRIGEL): 0.5776 | log intensity, protocadherin 10 (on MATRIGEL): 1.767 | log intensity, putative 47 kDa protein (r448) (on MATRIGEL): −0.1239 | log intensity, putative 47 kDa protein (r770) (on MATRIGEL): 0.1565 | log intensity, putative sterol reductase SR-1 (TM7SF2) (on MATRIGEL): 1.669 | log intensity, ras homolog gene family, member B (on MATRIGEL): −0.1231 | log intensity, receptor tyrosine kinase-like orphan receptor 2 (ROR2) (on MATRIGEL): 1.533 | log intensity, regulator of G protein signalling 5 (RGS5) (on MATRIGEL): 3.0091 | log intensity, ret finger protein-like 2 (RFPL2) (on MATRIGEL): −2.155 | log intensity, secreted apoptosis related protein 2 (SARP2) (on MATRIGEL): 3.184 | log intensity, secreted frizzled-related protein 1 (on MATRIGEL): 1.649 | log intensity, sialyltransferase (STHM) (on MATRIGEL): −0.6871 | log intensity, signal transducer and activator of transcription 3 (acute-phase response factor) (on MATRIGEL): −0.8373 | log intensity, singed (Drosophila)-like (sea urchin fascin homolog like) (SNL) (on MATRIGEL): 4.233 | log intensity, sodium dependent phosphate transporter isoform NaPi-IIb (on MATRIGEL): −0.3971 | log intensity, solute carrier (SLC25A18) (on MATRIGEL): 0.4037 | log intensity, solute carrier family 9 (sodiumhydrogen exchanger), isoform 5 (SLC9A5) (on MATRIGEL): 0.04749 | log intensity, stanniocalcin 1 (STC1), mRNA (on MATRIGEL): 2.394 | log intensity, stanniocalcin 1 (r1113) (on MATRIGEL): 2.487 | log intensity, testican 3 (HSAJ1454) (on MATRIGEL): −2.812 | log intensity, testis enhanced gene transcript (BAX inhibitor 1) (on MATRIGEL): −0.6952 | log intensity, thyrotropin-releasing hormone (TRH) (on MATRIGEL): −1.657 | log intensity, transcription factor 2, hepatic; LF-B3; variant hepatic nuclear factor (TCF2), transcript variant a (on MATRIGEL): −1.125 | log intensity, transcriptional activator of the c-fos promoter (CROC4) (on MATRIGEL): 0.6664 | log intensity, transmembrane tyrosine kinase mRNA (on MATRIGEL): −0.006089 | log intensity, tropomodulin, clone MGC: 3643 (on MATRIGEL): 0.3488 | log intensity, tryptase, alpha (on MATRIGEL): 2.991 | log intensity, tudor repeat associator with PCTAIRE 2 (on MATRIGEL): 2.158 | log intensity, tyrosine 3-monooxygenasetryptophan 5-monooxygenase activation protein, eta polypeptide (r705) (on MATRIGEL): 2.985 | log intensity, tyrosine 3-monooxygenasetryptophan 5-monooxygenase activation protein, eta polypeptide (r966) (on MATRIGEL): 3.483 | log intensity, AD036 mRNA (on MEFS): 1.603 | log intensity, ADP-ribosylation factor 4-like (ARF4L) (on MEFS): 4.48 | log intensity, BACE mRNA for beta-site APP cleaving enzyme I-476 (on MEFS): 1.446 | log intensity, BTB (POZ) domain containing 2 (BTBD2) (on MEFS): 2.325 | log intensity, CXCR4 gene encoding receptor CXCR4 (on MEFS): 6.361 | log intensity, Cluster Incl. AB002344: Human mRNA for KIAA0346 gene (r901) (on MEFS): 3.478 | log intensity, Cluster Incl. AB002344: Human mRNA for KIAA0346 gene (r941) (on MEFS): 3.317 | log intensity, Cluster Incl. L37033: Human FK-506 binding protein homologue (FKBP38) (on MEFS): 1.661 | log intensity, Cluster Incl. N80935: zb07g06.s1 Homo sapiens cDNA (on MEFS): 2.666 | log intensity, ESTs (r403) (on MEFS): 2.715 | log intensity, ESTs (r404) (on MEFS): 2.276 | log intensity, ESTs (r405) (on MEFS): −1.711 | log intensity, ESTs (r442) (on MEFS): 5.906 | log intensity, ESTs (r453) (on MEFS): −2.153 | log intensity, ESTs (r473) (on MEFS): 0.8364 | log intensity, ESTs (r491) (on MEFS): −0.4453 | log intensity, ESTs (r522) (on MEFS): 2.214 | log intensity, ESTs (r523) (on MEFS): 0.05049 | log intensity, ESTs (r524) (on MEFS): 2.399 | log intensity, ESTs (r556) (on MEFS): 0.7383 | log intensity, ESTs (r567) (on MEFS): 1.124 | log intensity, ESTs (r627) (on MEFS): 3.973 | log intensity, ESTs (r741) (on MEFS): 2.614 | log intensity, ESTs (r745) (on MEFS): 3.836 | log intensity, ESTs (r766) (on MEFS): 2.128 | log intensity, ESTs (r767) (on MEFS): −0.3504
